In publication PMC9370761, “Anti-Inflammatory Effects of Auranamide and Patriscabratine—Mechanisms and In Silico Studies” (Molecules, 2022):

How the values were obtained:
[1] = system: nitric oxide (NO) production; assay: NO production (Griess assay) in LPSEc-stimulated RAW264.7 cells; type: cell-based, murine; conditions: for reduced the NO production by: 10 μM, LPSEc-stimulated NO = 100%; for IC50: Mus musculus, 100 ng/mL LPSEc, RAW264.7, 24 h, read-out: IC50 (concentration required to reduce the NO production by 50%)
Description: The anti-inflammatory activity of the compounds was tested using Escherichia coli lipopolysaccharide (LPSEc) stimulated RAW264.7 cells. Nitric oxide (NO) is a classical marker used to measure inflammation. The Griess assay was used to determine NO production. The cells were stimulated with 100 ng/mL LPSEc and the NO produced was considered to be at 100%. The anti-inflammatory effect of the compounds was assessed by adding the compounds (10, 1, 0.1, 0.01, and 0.001 µM) to the LPSEc stimulated cells. The efficacy of the compounds was assessed by calculating their ability to reduce the LPSEc stimulated NO production. Dimethyl fumarate was used as a positive control, and 0.1% DMSO was used as a negative control. […] The anti-inflammatory effect was not observed at concentrations of less than 0.1 μM.
(§1) The anti-inflammatory activity of the test compounds was assessed in E. coli lipopolysaccharide (LPSEc)-induced inflammation in RAW 264.7 cells. Cells (5 × 10^5 cells/well) were incubated for 24 h in a 24-well plate. Then, the cells were challenged with LPSEc (100 ng/mL) for 4 h. The test compounds (10, 1, 0.1, 0.01 and 0.001 µM) or positive control (dimethyl fumarate, 10 μM) were then added and incubated for 24 h. The levels of NO production and pro-inflammatory cytokines (IL-1β, IL-6, IFN-γ and TNF-α) were determined using the supernatant solution. The cell pellet was used to measure the levels of COX-2, NF-κB p65, NRF2, and HO-1.
LPSEc activates inducible nitric oxide synthase (iNOS) in RAW 264.7 cells and produces nitric oxide (NO), an important mediator of inflammation. The NO content in the supernatant solution was measured using the Griess assay following the manufacturer’s instructions. The optical density (OD) was measured at 540 nm using a Spectramax M3 microplate reader (Molecular Devices, LLC., San Jose, CA 95134, USA). The formula provided below was used to calculate the percentage of NO production. Percent NO production=ODtreated cells− ODblank/ODuntreated cells− ODblank×100%
The activity of the test compounds was tested in triplicate on each plate. The results are presented as mean ± SD. Treatment was performed with either LPSEc alone or LPSEc and test compounds were designated as treated cells. RAW264.7 cells treated with vehicle (0.1% DMSO) were designated as untreated cells.

IFN-γ = IFN-γ ELISA in LPSEc challenged RAW 264.7 cells; type: cell-based, murine; conditions: 10 μM; vs untreated cells; LPSEc alone 8.62 ± 0.26
Description: as §1
(§2) Single-Analyte ELISArray kits were used to quantify the pro-inflammatory cytokines (IL-1β, IL-6, IFN-γ and TNF-α) in the cell supernatant following the manufacturer’s instructions. The standard protein (50 μL) or test sample solutions (50 μL) were added to a well (in duplicate) and incubated for 2 h at room temperature. The contents in the well were washed with wash buffer, and then 100 µL of biotinylated detection antibody solution was added and incubated for 1 h at room temperature. […] The optical density was measured at 450/570 nm using a Spectramax microplate reader M3 (Molecular Devices, LLC., San Jose, CA 95134, USA). The levels of pro-inflammatory cytokines (in pg/mL) in test samples were calculated using the standard curve. […]

Hepa-1c1c7 cells = assay: MTT cytotoxicity on Hepa-1c1c7 cells; type: cell-based, murine; conditions: MTT assay, 24 h
Description: (§3) The cytotoxicity of the test compounds on RAW 264.7 and Hepa-1c1c7 cells was assessed using Vybrant® MTT Cell Proliferation Assay Kit following the manufacturer’s protocol. The cells were seeded at 5 × 10^5 cells/well and incubated for 24 h. Then, various concentrations (100 to 0.01 μM) of the test compounds were added and incubated for a further 24 h. The cell supernatant solution was replaced with the MTT assay solution and incubated for 4 h. The formazan crystals were dissolved in DMSO, and the optical density (OD) of the solution was measured at 570 nm (reference wavelength 630 nm) using Spectramax M3 microplate reader (Molecular Devices, LLC., San Jose, CA 95134, USA). The cell viability was calculated using the following formula, and the results are presented as mean ± SD. Percent cell viability %=ODtreated cells−ODblank/ODuntreated cells− ODblank×100%

[2] = Metabolic stability in human liver microsomes; type: in vitro ADME; conditions: 37 °C; for Clint: 0.5 µM; for half-life at 0.5 µM: read-out: Half-life (T1/2)
Description: (§4) Metabolic stability is an important parameter in the drug discovery pipeline. The metabolic stability of test compounds was evaluated in vitro using human, rat and mouse liver microsomes. The metabolic equation below determines the test compounds’ half-life (T1/2) and intrinsic clearance (Clint). Compound+ NADPH + H^++ O2 → oxidized analyte + NADP^++ H2O
(§5) The metabolic stability of the test compounds in human, rat, and mouse liver microsomes was determined using the method described in our previous work. Five microlitres of auranamide or patriscabratine (0.5 µM) were incubated in a reaction mixture at 37 °C for 0, 3, 6, 15, 30, 45 and 60 min. The concentration of test compounds in the reaction mixture was quantified using Agilent 1290 coupled with Q-TOF. The experiment was carried out in triplicate. The concentration versus time plot calculated the elimination rate constant (Kel). The below formulae were used to calculate the intrinsic clearance (Clint) and half-life (T1/2). The results are expressed as mean ± standard deviation from three experiments. Clint= Kel/0.5 ×52.5 T1/2= 0.693/Kel

IL-1β = IL-1β ELISA in LPSEc challenged RAW 264.7 cells; type: cell-based, murine; conditions: 10 μM; vs untreated cells; LPSEc alone 4.56 ± 0.13
Description: as §1, §2

COX-2 = COX-2 ELISA, cytoplasmic extract of LPSEc-stimulated RAW 264.7 cells; type: cell-based, murine; conditions: 10 μM; LPSEc control 8.09 ± 0.08
Description: as §1
(§6) The COX-2 level was estimated in the cytoplasmic extract, whereas NF-κB p65, NRF-2 and HO-1 levels were estimated in nuclear extract. The nuclear extraction kit was used to separate the cytoplasm from the nucleus following the manufacturer’s instructions. The cell pellet was incubated in 100 µL of pre-extraction buffer on ice for 10 min, vortexed, and centrifuged. The supernatant cytoplasmic extract was collected. […] The protein concentration in the extracts was determined using Bradford’s reagent. […] The levels were measured in triplicate. The absorbance was measured using a Spectramax M3 microplate reader (Molecular Devices, LLC., San Jose, CA 95134, USA). […]

HO-1 = HO-1 ELISA, nuclear extract of RAW 264.7 cells; type: cell-based, murine; conditions: 10 μM, vs negative control
Description: (§7) The NRF2 activation is associated with increased NQO1 activity and an increased concentration of NRF2 and HO-1 in the nucleus. The protective role of NRF2/HO-1 in inflammatory diseases is well documented. Therefore, the NRF2 and HO-1 levels in nuclear extracts of the RAW 264.7 cells were determined using ELISA kits and expressed as fold changes with reference to the negative control. The effect of test compounds on NQO1 activity was determined using the reported method in murine hepatoma cells (Hepa-1c1c7). Dimethyl fumarate was used as a positive control, and 0.1% DMSO was used as a negative control. […]
(§8) The anti-inflammatory activity of the test compounds was assessed in E. coli lipopolysaccharide (LPSEc)-induced inflammation in RAW 264.7 cells. […] The levels of NO production and pro-inflammatory cytokines (IL-1β, IL-6, IFN-γ and TNF-α) were determined using the supernatant solution. […]
(§9) The COX-2 level was estimated in the cytoplasmic extract, whereas NF-κB p65, NRF-2 and HO-1 levels were estimated in nuclear extract. […] The protein concentration in the extracts was determined using Bradford’s reagent. […] The levels were measured in triplicate. The absorbance was measured using a Spectramax M3 microplate reader (Molecular Devices, LLC., San Jose, CA 95134, USA). […]

TNF-α = TNF-α ELISA in LPSEc challenged RAW 264.7 cells; type: cell-based, murine; conditions: 10 μM; vs untreated cells; LPSEc alone 4.33 ± 0.17
Description: as §1, §2

NF-κB p65 = NF-κB p65 ELISA, nuclear extract of LPSEc-stimulated RAW 264.7 cells; type: cell-based, murine; conditions: 10 μM; LPSEc control 8.40 ± 0.09
Description: as §1, §6

NRF2 = NRF2 ELISA, nuclear extract of RAW 264.7 cells; type: cell-based, murine; conditions: 10 μM, vs negative control
Description: as §7, §8, §9

[3] = Metabolic stability in rat liver microsomes; type: in vitro ADME; conditions: 37 °C; for Clint: 0.5 µM; for half-life at 0.5 µM: read-out: Half-life (T1/2)
Description: as §4, §5

IL-6 = IL-6 ELISA in LPSEc challenged RAW 264.7 cells; type: cell-based, murine; conditions: 10 μM; vs untreated cells; LPSEc alone 6.91 ± 0.05
Description: as §1, §2

[4] = Metabolic stability in mouse liver microsomes; type: in vitro ADME; conditions: 37 °C; for Clint: 0.5 µM; for half-life at 0.5 µM: read-out: Half-life (T1/2)
Description: as §4, §5

NQO1 = NQO1 activity, Prochaska microtiter plate bioassay in Hepa-1c1c7 cells; type: cell-based, murine; conditions: 48 h
Description: The NRF2 activation is associated with increased NQO1 activity and an increased concentration of NRF2 and HO-1 in the nucleus. The protective role of NRF2/HO-1 in inflammatory diseases is well documented. Therefore, the NRF2 and HO-1 levels in nuclear extracts of the RAW 264.7 cells were determined using ELISA kits and expressed as fold changes with reference to the negative control. The effect of test compounds on NQO1 activity was determined using the reported method in murine hepatoma cells (Hepa-1c1c7). Dimethyl fumarate was used as a positive control, and 0.1% DMSO was used as a negative control. […] The CD value (concentration of test compound to double the NQO1 activity) of auranamide was 6.81 ± 0.18 μM, while for patriscabratine it was 4.28 ± 0.17 μM.
The “Prochaska” Microtiter Plate Bioassay was used to measure the NQO1 activity in hepatoma cells (Hepa-1c1c7). The cells (5 × 10^5 per well) were seeded and incubated with either auranamide or patriscabratine (10, 1, 0.1, 0.01, and 0.001 µM) or a reference drug (dimethyl fumarate, 10 μM) for 48 h. […] The protein concentration was determined using Bradford’s reagent. […] The optical density of the solution was determined at 610 nm using a Spectramax M3 microplate reader (Molecular Devices, LLC., San Jose, CA 95134, USA), and the values were normalized to the total protein content.

RAW264.7 cells = assay: MTT cytotoxicity on RAW264.7 cells; type: cell-based, murine; conditions: MTT assay, 24 h, RAW 264.7 cells
Description: as §3

IC50 [1]	Clint [2]	half-life at 0.5 µM [2]	Clint [3]	half-life at 0.5 µM [3]	Clint [4]	half-life at 0.5 µM [4]	Structure (SMILES)	reduced the NO production by [1]	IFN-γ fold change (IFN-γ)	concentrations found to be cytotoxic (Hepa-1c1c7 cells)	IL-1β fold change (IL-1β)	COX-2 fold change (COX-2)	HO-1 upregulation (HO-1)	TNF-α fold change (TNF-α)	NF-κB p65 fold change (NF-κB p65)	NRF2 upregulation (NRF2)	IL-6 fold change (IL-6)	CD value (concentration of test compound to double the NQO1 activity) (NQO1)	concentrations found to be cytotoxic (RAW264.7 cells)
1220 ± 950 nM	10.18 ± 0.35 mL/min/g liver	7.14 min	17.22 ± 0.46 mL/min/g liver	4.23 min	16.18 ± 0.43 mL/min/g liver	4.5 min	O=C(N[C@@H](COC(=O)[C@H](Cc1ccccc1)NC(=O)c1ccccc1)Cc1ccccc1)c1ccccc1 [Auranamide]	33.22%	4.06 ± 0.19 fold change	higher than 10 µM	2.05 ± 0.16 fold change	2.53 ± 0.25 fold changes	1.74 ± 0.09 fold	2.42 ± 0.24 fold change	2.13 ± 0.20 fold changes	2.66 ± 0.16 fold	2.85 ± 0.31 fold change	6.81 ± 0.18 µM	higher than 10 µM
1850 ± 930 nM	13.27 ± 0.42 mL/min/g liver	5.48 min	18.53 ± 0.56 mL/min/g liver	3.93 min	18.64 ± 0.51 mL/min/g liver	3.9 min	CC(=O)NC(COC(=O)C(Cc1ccccc1)NC(=O)c1ccccc1)Cc1ccccc1 (centres unmarked) [Patriscabratine]	30.84%	4.15 ± 0.21 fold change	higher than 10 µM	1.96 ± 0.12 fold change	2.17 ± 0.31 fold changes	1.83 ± 0.07 fold	2.53 ± 0.18 fold change	2.25 ± 0.27 fold changes	2.37 ± 0.06 fold	2.51 ± 0.38 fold change	4.28 ± 0.17 µM	higher than 10 µM
